Laboratory results from patent US6410596B1 (Insmed Incorporated, priority 2000, dated 2002).

What was measured:
[1] = test system: C57BL/ks diabetic (db/db) mice; assay: Plasma glucose lowering in diabetic db/db mice; type: in vivo; conditions: for Change in Glucose 6 H: 125 mg/kg q.d. oral (0, 24, 48 h), 6 h after initial dose, Table 8 experiment (FIG. 5)
Experimental: (§1) Genetically altered obese diabetic mice (designated C57BL/ks diabetic or db/db) were purchased from the Jackson Laboratory (Bar Harbor, Me., USA), and served as experimental animals. Male animals between the ages of 8-9 weeks were employed in the studies described here. Animals were housed (4 mice/cage) under standard laboratory conditions at 22° C. and 50% relative humidity, and were maintained on a diet of Purina rodent chow and water ad libitum. Prior to treatment, blood was collected from the tail vein of each a nimal. Mice that had plasma glucose levels between 350 and 600 mg/dL were used. Each treatment group consisted of eight mice that were distributed so that the mean glucose levels were equivalent in each group at the start of the study. Db/db mice received, orally by gavage: the experimental compound administered at 62.5, 125, or 250 mg/kg/day (unless otherwise noted), or metformin administered at […] for 1-3 days, Test compounds were delivered in a liquid vehicle containing 0.25% (w/v) carboxymethyl-cellulose, 1% (v/v) Tween 60® (polyoxyethylene sorbitan monosterate), and up to 10% (v/v) dimethyl sulfoxide (DMSO) in a volume of 10 ml/kg. Blood was sampled from the tail vein at three hours, six, eight, twenty-four, and thirty hours post-administration (the first administration) of the particular compound in non-fasted conditions. Experiments 3-5 also sampled blood at fifty-four hours post-administration (the first administration) of the particular compound in non-fasted conditions. Blood samples were analyzed for plasma glucose levels. Individual body weights and mean food consumption (each cage) were also measured daily.
The isolated test substances were prepared as described previously (vide supra). Metformin (1,1-dimethylbiguanide), carboxymethyl cellulose and Tween 60 were purchased from Sigma Chemical Co. (St. Louis, Mo., USA; catalog #'s D-5035, C-4888, and p-1629, respectively). Plasma glucose levels were determined […] using glucose oxidase (Sigma Chemical Co.; Sigma catalog #315). Significant differences between groups (comparing compound-treated to vehicle-treated) were evaluated using analysis of variance and Fisher's post-hoc test. […]

[2] = Body weights and food consumption in diabetic db/db mice; type: in vivo
Experimental: as §1

[3] = 125 mg/kg oral, Table 8 experiment
[4] = 125 mg/kg, Table 10/11 experiment
[5] = 125 mg/kg oral, Table 10 experiment

5-hydroxy-3-methoxy-2-(3-methyl-2-butenyl)stilbene [Compound A]
mean glucose levels declined from the baseline values ([1]; decline, 62.5 mg/kg, 30 h after initial dosing, Tables 4/6 experiment): 40.7 mg/dL
mean glucose levels declined from the baseline values ([1]; decline, 125 mg/kg, 30 h after initial dosing, Tables 4/6 experiment): 69.7 mg/dL
mean glucose levels declined from the baseline values ([1]; decline, 250 mg/kg (also metformin 250 mg/kg), 30 h after initial dosing, Tables 4/6 experiment): 221.4 mg/dL

COc1cc(O)cc(CCc2ccccc2)c1 [Compound G, 3-hydroxy-5-methoxybibenzene]
hypoglycemic effect relative to vehicle [1, 3]: statistically significant reduction in plasma glucose
Change in Glucose 6 H [1]: 35.0 mg/dL
effect on food intake or body weight ([2]; 125 mg/kg, Table 8 experiment): absence of any significantly adverse effect on food intake or body weight
effect on food intake or body weight [2, 4]: absence of any significantly adverse effect on food intake or body weight

COc1cc(O)cc(CCc2ccccc2)c1CC=C(C)C [Compound E]
hypoglycemic effect relative to vehicle [1, 3]: statistically significant reduction in plasma glucose
hypoglycemic effect relative to vehicle [1, 5]: statistically significant reduction in plasma glucose
Change in Glucose 6 H [1]: -2.1 mg/dL
Food Intake 0-48 h ([2]; 125 mg/kg, Table 11): 5.7 g/mouse
Body weight (mean) 0 h ([2]; 125 mg/kg, Table 11): 39.6 ± 0.3 g/mouse
Body weight (mean) 48 hr ([2]; 125 mg/kg, Table 11): 40.2 ± 0.4 g/mouse
effect on food intake or body weight ([2]; 125 mg/kg, Table 8 experiment): absence of any significantly adverse effect on food intake or body weight
effect on food intake or body weight [2, 4]: absence of any significantly adverse effect on food intake or body weight

COc1cc(/C=C/c2ccccc2)c(C(=O)O)c(O)c1CC=C(C)C [Compound C, 3-hydroxy-4-(3-methyl-2-butenyl)-5-methoxystilbene-2-carboxylic acid]
hypoglycemic effect relative to vehicle ([1]; 250 mg/kg oral, FIG. 2 experiment): statistically significant reduction in plasma glucose
hypoglycemic effect relative to vehicle ([1]; 62.5, 125, and 250 mg/kg oral, Tables 4/6 experiment): statistically significant reduction in plasma glucose
mean glucose levels declined from the baseline value ([1]; decline, 125 mg/kg, 54 h after initial dosing, Tables 4/6 experiment): 60.4 mg/dL
mean glucose levels declined from the baseline values ([1]; decline, 250 mg/kg (also metformin 250 mg/kg), 54 h after initial dosing, Tables 4/6 experiment): 122.0 mg/dL
effect on food intake or body weight ([2]; 62.5 mg/kg, 125 mg/kg, and 250 mg/kg, Tables 4/6 experiment): absence of any significantly adverse effect on food intake or body weight
effect on food intake or body weight ([2]; 250 mg/kg, FIG. 2 experiment): absence of any significantly adverse effect on food intake or body weight
food intake versus normal food intake range (5-6 g/day/mouse) ([2]; 250 mg/kg, FIG. 2 experiment): less than that of the normal food intake range
food intake versus normal food intake range (5-6 g/day/mouse) ([2]; 250 mg/kg, Tables 4/6 experiment): less than that of the normal food intake range

COc1cc(O)cc(CCc2ccccc2)c1CCC(C)C [Compound F]
hypoglycemic effect relative to vehicle [1, 5]: statistically significant reduction in plasma glucose
Food Intake 0-48 h ([2]; 125 mg/kg, Table 11): 5.8 g/mouse
Body weight (mean) 0 h ([2]; 125 mg/kg, Table 11): 39.3 ± 0.8 g/mouse
Body weight (mean) 48 hr ([2]; 125 mg/kg, Table 11): 39.8 ± 0.8 g/mouse

COc1cc(/C=C/c2ccccc2)cc(O)c1CC=C(C)C [Compound D, 3-hydroxy-5-methoxy-4-(3-methyl-2-butenyl)stilbene]
hypoglycemic effect relative to vehicle [1, 5]: statistically significant reduction in plasma glucose
Food Intake 0-48 h ([2]; 125 mg/kg, Table 11): 5.7 g/mouse
Body weight (mean) 0 h ([2]; 125 mg/kg, Table 11): 39.3 ± 0.6 g/mouse
Body weight (mean) 48 hr ([2]; 125 mg/kg, Table 11): 39.7 ± 0.7 g/mouse

CN(C)C(=N)N=C(N)N [Metformin, 1,1-dimethylbiguanide, reference compound]
Food Intake 0-48 h ([2]; 250 mg/kg, Table 5): 5.1 g/mouse
Body weight (mean) 0 h ([2]; 250 mg/kg, Table 5): 37.3 ± 0.7 g/mouse
Body weight (mean) 48 hr ([2]; 250 mg/kg, Table 5): 37.2 ± 0.6 g/mouse
